Measured values as given in PMC5291098, “Molecular mutagenesis of ppGpp: turning a RelA activator into an inhibitor” (Scientific Reports, 2017).
“Also recorded” adds a separate entry of the source. Like-named read-outs stand apart in the source and are kept apart here.

Assays:
[1] = tested on: T1, E. coli σ70-RNAP holoenzyme; experiment: Multiple round in vitro transcription by σ70-RNAP (rrnB P1 and rna1 promoters); format: biochemical, Escherichia coli; conditions: for Effect of DksA addition on RNAP inhibition, rrnB P1 promoter (in words): 2 μM DksA; for Inhibition of RNAP, rrnB P1 promoter (in words): absence of DksA, irrespective of presence or absence of 100 μM ppGpp
T1 construct: purchased Epicentre
Protocol: Next, we tested their effects on RNAP. […] We used multiple round in vitro transcription driven from the rrnB P1, a well-characterized ppGpp/DksA inhibited promoter, as described earlier[49]. The assays were performed in the presence and absence of 2 μM DksA and/or 100 μM ppGpp (Fig. 5a).
Effect of inhibitors on rrnB P1 (−66 to +50) promoter transcription by RNAP. Graphs depicting inhibitor (0, 0.025, 0.05, 0.15, 0.4 and 0.6 mM) titrations performed at 30 °C in T-buffer with 0.5 nM template (σ^70-rrnB P1 promoter (pRLG6214)) and 5 nM σ^70-RNAP, in presence or absence of 100 μM ppGpp and/or 2 μM DksA. Error bars represent standard deviations of linear regression estimates, each experiment was performed at least three times.
The assays were performed as per Bernardo et al. (2006)4 with minor modifications. Reactions were carried out in T-buffer (50 mM Tris-HCl pH 7.5, 100 mM NaCl, 10 mM MgCl2, 1 mM dithiothreitol, 0.1 mM EDTA and 0.275 mg of BSA per ml) at 30°C. Inhibitors were titrated to final concentrations of 0, 0.025, 0.05, 0.15, 0.4 and 0.6 mM. E. coli s 70-RNAP holoenzyme (Epicentre, final concentration 5 nM) and template plasmid DNA containing s70-rrnB P1 promoter, (pRLG6214, final concentration 0.5 nM) was used for all experiments. Before initiation of transcription, E. coli s70-RNAP holoenzyme and T buffer were incubated at 30°C for 5 min. Above mix was added to predispensed mixture of inhibitor and the template plasmid DNA containing s70-rrnB P1 promoter (pRLG6214), incubated for further 20 min to initiate open complex formation. 2.5 µl of a mixture of ATP (ﬁnal concentration 0.5 mM), GTP and CTP (ﬁnal concentration 0.2 mM each), UTP (ﬁnal concentration 0.08 mM) and [a-32P]-UTP (5 µCi at > 3000 Ci/mmol, PerkinElmer) was added to initiate transcription by RNAP. After 7 min, 1 µl heparin (0.125 mg/ml ﬁnal concentration) was added to the reaction mixture to prevent re-initiation and further incubated for 5 min to allow completion of initiated transcripts. Transcription was terminated by addition of formamide loading buffer and samples were electrophoresed on a 7M urea-5% polyacrylamide gel and quantified by phosphorimaging.

[2] = molecular target: E. faecalis SAS RelQ (RelQEf) (Enterococcus faecalis, UniProt Q830U9); experiment: Inhibition of E. faecalis SAS RelQ ppGpp synthesis; format: biochemical; conditions: for Effect on RelQEf activity (in words): concentrations up to 1 mM
Description: In E. coli, ppGpp is synthesized by the multi-domain RSHs RelA and SpoT, however, numerous single-domain RSHs – Small Alarmone Synthetases (SAS) – are widely distributed across bacterial taxa[3]. […] Therefore we tested the effects of DR-4250, DR-M014 and DR-5163 on RelQEf activity (Supplementary Figure 2).
(§1) Detailed description of experimental procedures can be found in Supplementary Text. Biochemical assays utilize in vitro translation[58] and stringent response[15] systems from E. coli purified components. Experiments were performed in HEPES:Polymix[58] buffer with either 5 (for enzymatically assembled initiation complexes) or 15 mM (for vacant 70 S, as well as non-enzymatically assembled programmed ribosomes) Mg^2+. Expression and purification of E. faecalis RelQ was performed as per Gaca (2015) and colleagues. GTPase and ppGpp synthesis were followed using TLC separation and radiochemical detection of ^3H-labelled nucleotides. Multiple round in vitro transcription assays were performed as per Bernardo et al.[49] with minor modifications. Inhibition efficiency (IC50) was calculated using 4-parameter logistic model (Hill equation) as per Sebaugh[60].
RelQ activity0.4 RelQ activity0.4 RelQ activity0.4
Supplementary Figure 2 | Inhibition of E. faecalis SAS RelQ by DR-4250, DR-
M014 and DR-5163 is inefficient. The reaction mixture contains 0.25 µM RelQEf,
300 µM [3H] GDP, 0.5 mg/ml BSA, 100 µM ppGpp, 1 mM ATP in Hepes:Polymix at […]

[3] = tested on: ΔywaCΔyjbM B. subtilis; experiment: Growth of ΔywaCΔyjbM B. subtilis in valine drop-out S7 medium (functional test for Rel inhibition); format: cell-based, Bacillus subtilis; conditions: up to 1 mM (0 to 1000 µM)
Description: Finally, we tested the three of our most promising inhibitors (DR-4250, DR-M014 and DR-5163) for RSH inhibition in bacterial culture. For this we used the Gram-positive bacterium B. subtilis due to its better uptake of compounds as compared to Gram-negative species such as E. coli[50]. The functional test for RSH inhibition relied on the auxotrophy of (p)ppGpp-deficient (ppGpp^0) B. subtilis for methionine and branched-chain amino acids valine, leucine and isoleucine. The B. subtilis RSH repertoire consists of one multi-domain ribosome-associated enzyme Rel and two SAS, YwaC and YjbM[3][52]. Because the SAS RelQEf is refractory to inhibition by our test compounds (Supplementary Figure 2), we used a B. subtilis strain lacking SASs (ΔywaCΔyjbM), in which the sole source of (p)ppGpp is Rel[53]. Defined S7 medium[54] lacking valine supports the growth of ΔywaCΔyjbM B. subtilis, but not the ppGpp^0 stain (Supplementary Figure 5). […] This is indicative of the test compounds failing to inhibit Rel and thereby rendering the strain phenotypically ppGpp^0 (Supplementary Figure 5). A lack of cellular uptake is a likely explanation. […]
Growth assays with Bacillus subtilis BSB1 wild type strain
SAS deletion and ppGpp0 strain of B. subtilis5 were grown in S7 liquid medium6 except for amino acid requirements, which were met as described elsewhere 7. On 96-well plate, 90 µl of B subtilis starter culture was mixed with 10 µL of compound dilution (in 5 mM Tris pH 7.2) so that final OD600 was 0.025 (l = 1 cm).
Following incubation was without shaking at 37°C and growth was monitored with Tecan Infinite M200 at OD600 (raw OD600 values are reported). B. subtilis starter culture was prepared as follows. Late exponential phase cells in S7, with full set of amino acids, were diluted ≈10-fold in S7 lacking either valine or lysine so that, after addition of 8% DMSO, OD600 was 0.25. Next, cell suspensions were aliquoted, frozen in liquid nitrogen, and stored at -80°C. Just before the experiment, cells were thawed on ice and appropriate amount of media was […]
DywaC DyjbM BSB1 B. subtilis ppGpp0. BSB1 B. subtilis wild type strain as grown on S7 synthetic media8 drop-out media lacking valine which abolishes the growth of ppGpp0 (Drel DywaC DyjbM) strain due to valine auxotrophy (dashed line). […]
inhibit the Rel and render the strain ppGpp0.

[4] = molecular target: T2, E. coli RelA (Escherichia coli, UniProt P0AG20); experiment: Inhibition of [3H]GDP to [3H]ppGpp conversion by E. coli RelA activated by vacant 70S ribosomes and 100 μM ppGpp; format: biochemical; conditions: for IC50: 30 nM RelA, 0.5 μM vacant 70S, 100 μM ppGpp; for nHill (Hill coefficient of the titration fit): Supplementary Table 1, 4-parameter logistic model
T2 construct: made in house
Protocol: For the initial characterization of compounds, we followed the inhibition of [^3H] GDP conversion to [^3H] ppGpp catalyzed by E. coli RelA in a simplified system in which RelA’s activity was induced by vacant 70S ribosomes and 100 μM of ppGpp[15]. Unlabeled ppGpp was added to reaction mixtures in order to linearize the kinetics of [^3H] ppGpp synthesis due to an activating effect on the RelA enzyme. We used a targeted library of 69 nucleotides belonging to several structural classes: ‘true’ ppGpp analogues; Relacin and its derivatives; pyrrolidine, azetidine, piperidine and acyclic phosphonates. Chemical structures of tested compounds and titrations in the RelA:70S:ppGpp system are presented in Supplementary Table 1.
as §1
Thin layer chromatography (TLC) analysis of nucleotide mixtures
Both EF-G GTPase reaction and ppGpp synthesis by RelA were followed by TLC analysis followed by scintillation counting according to Mechold and colleagues, with modifications1. Time points from the reaction mixtures (5 μl, see below for details) were quenched by addition 4 μl 70% formic acid supplemented with a cold nucleotide standard used for UV-shadowing (10 mM GDP and 10 mM GTP) and spotted on PEI-TLC plates (Macherey-Nagel). TLC was run in buffer, plates dried, cut into sections guided by UV-shadowing and 3H radioactivity was quantified by scintillation counting in Optisafe-3 (Fisher) scintillation cocktail on Perkin Elmer Tricarb 2810TR counter. Conversion of substrate to product was quantified as described in Shyp et al. (2012)2.
Enzymatic assays with E. coli RelA
Screening: all experiments were performed in HEPES:Polymix, Mg2+ of 5 mM, 37 […]
μM ppGpp was pre-incubated at 37° C for 2 min and then reaction started by addition of 1 mM ATP, time points (5 μl) taken, quenched with formic acid and analyzed by TLC. Inhibition efficiency (IC50) was calculated using 4-parameter logistic model (Hill equation) as per Sebaugh (2011)3. […]

[5] = 0.3 mM [3H]GDP, 1 mM ATP, read-out: IC50
[6] = 5 mM Mg2+, 37 °C, no unit beside the value, titration axis in mM, read-out: IC50 (Supplementary Table 1, example titration)

T2 sequence (P0AG20 whole entry): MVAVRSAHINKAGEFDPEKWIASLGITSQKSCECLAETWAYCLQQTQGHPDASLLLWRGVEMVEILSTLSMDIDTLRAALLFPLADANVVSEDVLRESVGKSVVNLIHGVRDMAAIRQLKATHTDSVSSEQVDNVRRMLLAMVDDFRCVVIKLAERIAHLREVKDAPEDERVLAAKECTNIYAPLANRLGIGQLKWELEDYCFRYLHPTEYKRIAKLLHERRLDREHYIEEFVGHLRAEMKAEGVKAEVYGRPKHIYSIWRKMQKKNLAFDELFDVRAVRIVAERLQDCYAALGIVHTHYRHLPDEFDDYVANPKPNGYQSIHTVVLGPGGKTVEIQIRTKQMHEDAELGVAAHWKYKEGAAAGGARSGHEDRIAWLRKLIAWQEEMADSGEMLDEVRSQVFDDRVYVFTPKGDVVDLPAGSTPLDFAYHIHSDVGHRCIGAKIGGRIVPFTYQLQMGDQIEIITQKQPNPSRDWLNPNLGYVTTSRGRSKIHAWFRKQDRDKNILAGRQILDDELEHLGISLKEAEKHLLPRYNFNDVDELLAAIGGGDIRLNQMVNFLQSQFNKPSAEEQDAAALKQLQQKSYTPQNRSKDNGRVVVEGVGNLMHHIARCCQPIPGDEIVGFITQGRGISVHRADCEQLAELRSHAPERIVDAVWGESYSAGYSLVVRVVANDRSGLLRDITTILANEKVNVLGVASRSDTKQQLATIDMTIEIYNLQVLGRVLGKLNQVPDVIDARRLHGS
Sequence of E. faecalis SAS RelQ (RelQEf) (Q830U9 entry or part of it): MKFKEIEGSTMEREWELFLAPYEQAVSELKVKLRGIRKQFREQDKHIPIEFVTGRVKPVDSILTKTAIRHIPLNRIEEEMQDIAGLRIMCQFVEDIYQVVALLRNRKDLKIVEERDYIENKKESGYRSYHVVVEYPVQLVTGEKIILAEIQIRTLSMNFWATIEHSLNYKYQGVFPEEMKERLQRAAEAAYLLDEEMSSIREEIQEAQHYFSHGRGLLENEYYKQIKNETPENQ

Compound | Effect of DksA addition on RNAP inhibition, rrnB P1 promoter (in words) [1] | Inhibition of RNAP, rrnB P1 promoter (in words) [1] | Inhibition of RNAP, ppGpp-insensitive promoter rna1 (in words) ([1]; presence or absence of 100 μM ppGpp and/or 2 μM DksA (Supplementary Figure 4)) | IC50 ([2]; 0.25 µM RelQEf, 300 µM [3H]GDP, 100 µM ppGpp, 1 mM ATP, 37°C) [µM] | Effect on RelQEf activity (in words) [2] | Effect on growth of ΔywaCΔyjbM B. subtilis (in words) [3] | IC50 [4, 5] [mM] | IC50 [4, 6] [mM] | nHill (Hill coefficient of the titration fit) [4] | Effect on growth of ΔywaCΔyjbM B. subtilis (in words) ([3]; listed as DR-M013)
Nc1nc2c(ncn2C2OC(COP(=O)(O)OCP(=O)(O)O)C(OP(=O)(O)OCP(=O)(O)O)C2O)c(=O)[nH]1 (centres unmarked) [DR-4250, Guanosine 3’,5’-di(phosphonomethoxyphosphate)] | pronounced protective effect | more potent inhibitors of RNAP then of RelA | the same behavior | 235 ± 19 | inefficient | did not affect bacterial growth; also recorded: does not affect the growth | 0.054 ± 0.003 | 0.053 ± 0.003 | 2.74 ± 0.5 | –
Nc1nc2c(ncn2C2CCN(C(=O)P(=O)(O)O)CC2)c(=O)[nH]1 [DR-M014] | pronounced protective effect | more potent inhibitors of RNAP then of RelA | – | – | inefficient; also recorded: almost inactive | does not affect the growth | 0.121 ± 0.02 | 0.12 ± 0.02 | 1.9 ± 0.5 | did not affect bacterial growth
